Reference: patent US20240108744A1, “AURISTATIN DERIVATIVES AND CONJUGATES THEREOF” (priority 2022, published 2024)
Like-named read-outs stand apart in the source and are kept apart here. Square brackets hold non-standard residues; d marks the D form. Peptide text beside a SMILES is read from it. * marks the point of attachment. Dolaproine = CO[C@@H]([C@@H]1CCCN1)[C@@H](C)C(=O)O; Phe(βS-OH) = N[C@H](C(=O)O)[C@@H](O)c1ccccc1; Dil = CC[C@H](C)[C@H](NC)[C@@H](CC(=O)O)OC; X1 = CC(C)[C@@H](C(=O)*)N(C)CCS; X2 = CSCCN(C)[C@H](C(=O)*)C(C)C

Columns and labels:
Assay type in all cases: cell-based
SK-BR-3 = assay: In vitro cytotoxicity (CCK-8) in SK-BR-3 cells; conditions: Homo sapiens, SK-BR-3 cell line, 120 hours incubation
Procedure: (§1) Cytotoxic potencies of the compounds are assessed in flat-bottomed 96-well cell culture plates (Corning Costar) using cell counting Kit-8 (CCK-8) assay (Shanghai Life Lab Biotech Co., Ltd.). Briefly, human tumor cells (1,000-10,000 cells/well, depending on the cell line), in the appropriate culture medium are incubated, with the compounds, or with conjugates in the presence or absence of an excess of the corresponding unconjugated antibodies, for 120 hours, at 37° C., 5% CO2.
(§2) Dispensed 175 μL cell suspension in 96-well plate at 1500 cells per well and incubate for 24 hours in a humidified incubator (37° C., 5% CO2). Added 25 μL various concentrations of compound as a 5× solution into the cell culture medium (Fetal bovine serum, Invitrogen) in the plate and incubated for 120 hours in the incubator. Thawed CCK-8 on the bench top or in a 37° C. water bath, added 10 μL of CCK-8 to each well of the incubated plate (be careful not introducing air bubbles into the wells since they would interfere with the O. D. reading) and then further incubated for 1-4 hours in the incubator. Measured the absorbance at 450 nm using a SpectraMax i3x Microplate Reader and calculated the cell inhibition rate. The IC50 curves were generated along with the IC50 values by using GraphPad Prism software.

NCI-N87 = assay: In vitro cytotoxicity (CCK-8) in NCI-N87 cells; conditions: Homo sapiens, NCI-N87 cell line, 120 hours incubation
Procedure: as §1, §2

JMT-1 = assay: In vitro cytotoxicity (CCK-8) in JMT-1 cells; conditions: Homo sapiens, JMT-1 cell line, 120 hours incubation
Procedure: as §1, §2

SK-OV-3 = assay: In vitro cytotoxicity (CCK-8) in SK-OV-3 cells; conditions: Homo sapiens
Procedure: as §1, §2

NCI-H2110 = assay: In vitro cytotoxicity (CCK-8) in NCI-H2110 cells; conditions: Homo sapiens
Procedure: as §1, §2

HCC 827 = assay: In vitro cytotoxicity (CCK-8) in HCC 827 cells; conditions: Homo sapiens
Procedure: as §1, §2

OVCAR-3 = assay: In vitro cytotoxicity (CCK-8) in OVCAR-3 cells; conditions: Homo sapiens
Procedure: as §1, §2

BR 474 = assay: In vitro cytotoxicity (CCK-8) in BR 474 cells; conditions: Homo sapiens, BR 474 cell line, 120 hours incubation
Procedure: as §1, §2

[1] = SK-OV-3 cell line, 120 hours incubation, CCK-8, read-out: IC50
[2] = NCI-H2110 cell line, 120 hours incubation, CCK-8, read-out: IC50
[3] = HCC827, HCC 827 cell line, 120 hours incubation, CCK-8, read-out: IC50
[4] = OVCAR-3 cell line, 120 hours incubation, CCK-8, read-out: IC50

Compound	IC50 (SK-BR-3)	IC50 (NCI-N87)	IC50 (JMT-1)	IC50 (SK-OV-3; [1])	IC50 (NCI-H2110; [2])	IC50 (HCC 827; [3])	IC50 (OVCAR-3; [4])	IC50 (BR 474)	IC50 (SK-OV-3; SK-OV-3, 120 h)	IC50 (NCI-H2110; NCI-H2110, 120 h)	IC50 (HCC 827; HCC827, 120 h)	IC50 (OVCAR-3; OVCAR-3, 120 h)
CC[C@H](C)[C@@H]([C@@H](CC(=O)N1CCC[C@H]1[C@H](OC)[C@@H](C)C(=O)N[C@H](C(=O)O)[C@@H](O)c1ccccc1)OC)N(C)C(=O)[C@@H](NC(=O)[C@H](C(C)C)N(C)CCSC)C(C)C (X2-V[Dil][Dolaproine][Phe(βS-OH)]-OH)	13.6 nM	32.3 nM	36.1 nM									
CC[C@@]1(O)C(=O)OCc2c1cc1n(c2=O)Cc2cc3c(CCCCO)c(C)c(F)cc3nc2-1	0.014 nM	2.6 nM	14 nM	0.36 nM	0.85 nM	0.78 nM	0.1 nM	> 1000 nM				
CC[C@@]1(O)C(=O)OCc2c1cc1n(c2=O)Cc2c-1nc1cc(F)c(C)c3c1c2[C@@H](NC(=O)CO)CC3									3.6 nM	4.1 nM	1.8 nM	0.2 nM
CC[C@H](C)[C@@H]([C@@H](CC(=O)N1CCC[C@H]1[C@H](OC)[C@@H](C)C(=O)N[C@H](C)[C@@H](O)c1ccccc1)OC)N(C)C(=O)[C@@H](NC(=O)[C@H](C(C)C)N(C)CCSC)C(C)C	0.41 nM	0.94 nM	0.49 nM									
CC[C@H](C)[C@@H]([C@@H](CC(=O)N1CCC[C@H]1[C@H](OC)[C@@H](C)C(=O)N[C@H](C(=O)O)[C@@H](O)c1ccccc1)OC)N(C)C(=O)[C@@H](NC(=O)[C@H](C(C)C)N(C)CCS)C(C)C (X1-V[Dil][Dolaproine][Phe(βS-OH)]-OH)				38 nM	12 nM	108 nM	67.6 nM					
CC[C@H](C)[C@@H]([C@@H](CC(=O)N1CCC[C@H]1[C@H](OC)[C@@H](C)C(=O)N[C@H](C)[C@@H](O)c1ccccc1)OC)N(C)C(=O)[C@@H](NC(=O)[C@H](C(C)C)N(C)CCS)C(C)C	1.7 nM	4.8 nM	2.1 nM	7.7 nM	10 nM			5.1 nM				
